Experimental data taken from patent US20240350411A1, “METHODS FOR PREPARING LIPOSOMAL FORMULATIONS” (Celator Pharmaceuticals, Inc., priority 2021, published 2024).

Assay: Removal of free drug during purification with acidified sugar solution: concentration in the permeate
Excerpt: Without being bound by theory, it is surmised that encapsulation of therapeutic agents into liposomes results in some portion of the therapeutic agent becoming associated with or trapped within the lipid bilayer, particularly when encapsulating therapeutic agents with low water solubility or high hydrophobicity. Purifying the liposomal composition with an acidified aqueous solution may remove therapeutic agent that is associated with or trapped within the lipid bilayer, resulting in a liposome formulation that contains a therapeutic agent that is only encapsulated within the internal medium of the liposomes. […] As the washing volume increases—that is, as the liposomal composition is washed with an increasing amount of acidified aqueous sugar solution—the amount of Compound 9 detected in the permeate peaks, and then decreases. The peak is thought to result from a rapid release of Compound 9 that is associated with or trapped in the lipid bilayer into the acidified aqueous sugar solution. […] In other words, purifying the liposomal composition with an acidified aqueous solution may allow for any therapeutic agent merely associated with or trapped within the lipid bilayer to release into the acidified aqueous solution, thus preventing a rapid release from occurring in the bloodstream of a patient upon administration.
A formulation of liposomes containing Compound 9 was prepared and purified as described in Examples 1A, 1B, and 2. The liposome formulation comprised DSPC/Cholesterol/PEGylated (58/40/2 mol %) and used 250 mM AS as the loading aid.
During the purification of the formulation using tangential flow filtration, the concentration of Compound 9 in the permeate was measured, as shown below in Table 7. FIG. 3 depicts the concentration of Compound 9 in the permeate vs. the washing volume.

- Compound 9 detected in the permeate (after washing with about 300-400 mL of acidified aqueous sugar solution (FIG. 3)): little
- Concentration of Compound x in the permeate (washing volume 1×): 7100 ng/mL
- Concentration of Compound x in the permeate (washing volume 3×): 15900 ng/mL
- Concentration of Compound x in the permeate (washing volume 6×): 3500 ng/mL
- Concentration of Compound x in the permeate (washing volume 9×): 1400 ng/mL
- Concentration of Compound x in the permeate (washing volume 12×): 1000 ng/mL
Compound: CCN(CC)C1CCN(CC[C@H](CSc2ccccc2)Nc2ccc(S(=O)(=O)NC(=O)c3ccc(N4CCN(CC5=C(c6ccc(Cl)cc6)CCC(C)(C)C5)CC4)cc3)cc2S(=O)(=O)C(F)(F)F)CC1 [Compound 9]
